In US4014909A, “Esters of 21-thiol steroids” (priority 1974, dated 1977):
“Also recorded” adds a separate entry of the source. Where two headings read alike, the source gives them in different places.

What was measured:
Type in all cases: in vivo, rat (Sprague-Dawley)
[1] = test system: liver, kidneys, spleen, thymus, stomach; conditions: 4 weeks
Excerpt: (§1) The action on the endocrine glands and the genital tractus, and a possible ulcerogenic effect were investigated, together with the effects on the glucidic and proteic metabolisms, on the hydro-mineral equilibrium after long-term administration.
The principle of the tests employed is as follows.
The ulcer-producing action of certain corticoids, after repeated administration is well known, but the mechanism of this action still remains doubtful.
(§2) These studies have been carried out for some of the products according to the invention after sub-chronic administration.
(§3) There were utilized groups of 10 male rats and ten female rats of Sprague-Dawley S.P.F. strain which have been given the products under study by sub-cateneous methods daily for four weeks.
(§4) The products were administered in suspension in 5 % carboxy-methyl-cellulose under a volume of 0.5 ml. per 100 grams of body weight, in three different doses, the animals of the reference lot receiving the same volume of the vehicle alone.
(§5) At the end of this study there were extracted:
(§6) The samples numbered (1), (2) and (3) were immediately weighed. All the samples were then fixed for histological examination in the Bouin-Holland fixator.
(§7) During the course of the long-term study, the JO 1016 was administered daily to the male and female rats in doses of 100 mg/kg, 250 mg/kg, 500 mg/kg by the sub-cutaneous route.

[2] = Body weight after long-term sub-cutaneous treatment; conditions: 4 weeks
Protocol: as §1, §3, §4
(§8) In order to confirm certain previous results of the pharmacological short-term study, there has furthermore been determined, for each lot of animals:
The evolution of weight and the consumption of food during the treatment;
During the course of the long-term study, the JO 1016 was administered daily to the male and female rats in doses of 100 mg/kg, 250 mg/kg, 500 mg/kg by the sub-cutaneous route. […]

[3] = test system: adrenal glands, gonads, seminal vesicles, uterine tubes; assay: Action on the endocrine glands and the genital tractus: organ weights and histology, long-term treatment; conditions: for Ovaries weight / Seminal vesicles weight / Testicles weight / Uterine tubes weight / Adrenal glands weight: 4 weeks, N.S.
Excerpt: as §1
The repeated administration of corticoids may result in an inhibition of the secretion of the ante-hypophysiary hormone which is shown by a lowering of the effectiveness of the target-glands (example: adrenal-glandes) and indirectly of certain organs which are under the dependence of a hormone secretion (example: genital tractus).
as §2, §3, §4, §5
(2) the gonads (testicles or ovaries);
(3) the seminal vesicles or the uterine tubes;
as §6, §7
After a long-term treatment by the JO 1016, following the procedure (h), the average weights of the following organs: adrenal glandes, gonads, seminal vesicles, uterine tubes are indicated in the following Table XXII

[4] = Hydro-mineral equilibrium: sodium excretion after 4 weeks treatment; conditions: male rat, 500 mg/kg s.c.
Protocol: as §1, §3, §4, §8
at the end of the treatment:
the sodium excretion in 5 hours
as §7

In the case of `CC(C)(C)C(=O)SCC(=O)[C@@]1(O)CC[C@H]2[C@@H]3CCC4=CC(=O)CC[C@]4(C)[C@H]3[C@@H](O)C[C@@]21C` [JO 1016, Dihydroxy-11β, 17α thio-21 dioxo-3,20 pregnene-4-21 pivalate], the “Kidneys: presence of abscess (cases)” value ([1]; 250 mg/kg s.c. daily) is reported as 0/10, the “Liver: presence of abscess (cases)” value ([1]; 250 mg/kg s.c. daily) is reported as 0/10 and the “Spleen: atrophied (cases)” value ([1]; 250 mg/kg s.c. daily) is reported as 0/10. For the same compound, the “Stomach: ulcerated (cases)” value ([1]; 250 mg/kg s.c. daily) was 0/10, the “Stomach: ulcerated and infected (cases)” value ([1]; 250 mg/kg s.c. daily) was 0/10 and the “Thymus: atrophied (cases)” value ([1]; 250 mg/kg s.c. daily) was 0/10. For the same compound, the “Kidneys: presence of abscess (cases)” value ([1]; 500 mg/kg s.c. daily) was 0/10, the “Liver: presence of abscess (cases)” value ([1]; 500 mg/kg s.c. daily) was 0/10 and the “Spleen: atrophied (cases)” value ([1]; 500 mg/kg s.c. daily) was 0/10. For the same compound, the “Stomach: ulcerated (cases)” value ([1]; 500 mg/kg s.c. daily) was 0/10, the “Stomach: ulcerated and infected (cases)” value ([1]; 500 mg/kg s.c. daily) was 0/10 and the “Thymus: atrophied (cases)” value ([1]; 500 mg/kg s.c. daily) was 0/10. The “Body weight, average ± standard error” value ([2]; female rats, 100 mg/kg s.c.) was 219 ± 3.06 g, the “Body weight, percentages of variation and probabilities” value (shortened to “Body weight, percentages”) ([2]; female rats, 100 mg/kg s.c.) was “N.S” and the “Body weight, average ± standard error” value ([2]; female rats, 250 mg/kg s.c.) was 216 ± 3.18 g. The “Body weight, percentages” value ([2]; female rats, 250 mg/kg s.c.) was “N.S”, the “Body weight, average ± standard error” value ([2]; female rats, 500 mg/kg s.c.) was 198 ± 4.85 g and the “Body weight, average ± standard error” value ([2]; male rats, 100 mg/kg s.c.) was 299 ± 45.2 g. For the same compound, the “Body weight, percentages” value ([2]; male rats, 100 mg/kg s.c.) was “N.S”, the “Body weight, average ± standard error” value ([2]; male rats, 250 mg/kg s.c.) was 289 ± 7.7 g and the “Body weight, percentages” value ([2]; male rats, 250 mg/kg s.c.) was “N.S”. The “Body weight, average ± standard error” value ([2]; male rats, 500 mg/kg s.c.) was 274 ± 2,5 g, the Ovaries weight ([3]; 100 mg/kg s.c.) was 38.4 mg and the Seminal vesicles weight ([3]; 100 mg/kg s.c.) was 328.0 mg. The Testicles weight ([3]; 100 mg/kg s.c.) was 1.143 g, the Uterine tubes weight ([3]; 100 mg/kg s.c.) was 211.8 mg and the Ovaries weight ([3]; 250 mg/kg s.c.) was 38.3 mg. The Seminal vesicles weight ([3]; 250 mg/kg s.c.) was 296.0 mg, the Testicles weight ([3]; 250 mg/kg s.c.) was 1.144 g and the Uterine tubes weight ([3]; 250 mg/kg s.c.) was 184.7 mg. The Ovaries weight ([3]; 500 mg/kg s.c.) was 39.3 mg, the Seminal vesicles weight ([3]; 500 mg/kg s.c.) was 274.6 mg and the Testicles weight ([3]; 500 mg/kg s.c.) was 1.207 g. For the same compound, the Uterine tubes weight ([3]; 500 mg/kg s.c.) was 165.4 mg, the Adrenal glands weight ([3]; female rats, 100 mg/kg s.c.) was 26.7 mg and the Adrenal glands weight ([3]; female rats, 250 mg/kg s.c.) was 24,5 mg. For the same compound, the Adrenal glands weight ([3]; female rats, 500 mg/kg s.c.) was 27,0 mg, the “Histological examination of organs” value ([3]; long-term s.c. treatment) was “has not furthermore brought into evidence any alteration of their structure; also recorded: neither atrophy nor surrenal hypertrophy; also recorded: nor modification of the functional aspect of the male and female genital organs” and the Adrenal glands weight ([3]; male rats, 100 mg/kg s.c.) was 14.9 mg. The Adrenal glands weight ([3]; male rats, 250 mg/kg s.c.) was 12,3 mg, the Adrenal glands weight ([3]; male rats, 500 mg/kg s.c.) was 13.5 mg and the “Sodium excreted, average ± standard error” value [4] was 1,41 ± 0,116 Meq.
